In the Kinase Knowledgebase extract (Sharma et al. 2016):

Each molecule was assayed against PIK3CG (human) (UniProt P48736) (assay: Assessment of PIK3CG Kinase Activity).
PIK3CG (human), sequence (P48736 whole entry, looked up): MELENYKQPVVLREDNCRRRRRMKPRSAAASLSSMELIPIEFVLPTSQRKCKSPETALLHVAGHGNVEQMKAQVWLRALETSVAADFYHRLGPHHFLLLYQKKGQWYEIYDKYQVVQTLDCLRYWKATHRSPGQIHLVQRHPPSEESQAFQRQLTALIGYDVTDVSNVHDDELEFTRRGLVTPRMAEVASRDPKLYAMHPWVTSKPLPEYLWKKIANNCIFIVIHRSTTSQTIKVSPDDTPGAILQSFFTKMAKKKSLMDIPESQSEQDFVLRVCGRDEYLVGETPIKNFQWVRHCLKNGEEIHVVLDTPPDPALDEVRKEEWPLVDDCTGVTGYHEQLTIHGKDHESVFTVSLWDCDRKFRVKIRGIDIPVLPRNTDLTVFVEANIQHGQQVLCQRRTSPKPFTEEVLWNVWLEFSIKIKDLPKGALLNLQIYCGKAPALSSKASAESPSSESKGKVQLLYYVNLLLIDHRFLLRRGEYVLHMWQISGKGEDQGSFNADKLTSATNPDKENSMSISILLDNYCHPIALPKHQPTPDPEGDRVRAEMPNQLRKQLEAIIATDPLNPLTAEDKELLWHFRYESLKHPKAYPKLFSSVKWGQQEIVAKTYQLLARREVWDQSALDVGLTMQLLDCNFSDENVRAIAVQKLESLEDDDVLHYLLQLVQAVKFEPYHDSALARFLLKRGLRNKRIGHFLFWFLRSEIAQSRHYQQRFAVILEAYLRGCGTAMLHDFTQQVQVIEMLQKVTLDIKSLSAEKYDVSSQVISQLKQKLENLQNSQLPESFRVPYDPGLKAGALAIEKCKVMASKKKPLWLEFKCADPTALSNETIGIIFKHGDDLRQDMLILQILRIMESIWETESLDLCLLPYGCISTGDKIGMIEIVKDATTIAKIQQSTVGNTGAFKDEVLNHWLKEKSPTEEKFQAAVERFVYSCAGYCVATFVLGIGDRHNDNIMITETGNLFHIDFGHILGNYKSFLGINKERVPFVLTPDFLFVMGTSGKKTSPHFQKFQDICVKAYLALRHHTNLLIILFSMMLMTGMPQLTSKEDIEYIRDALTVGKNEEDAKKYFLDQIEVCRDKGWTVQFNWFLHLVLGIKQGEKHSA
`CC(=O)NCC1CCCN(C(=O)Nc2nc3c(s2)-c2nc(-c4ccccc4Cl)ncc2CC3)C1` (stereo not given) was tested, and the IC50 was < 800 nM. `CN(C)Cc1cccc(CNC(=O)Nc2nc3c(s2)-c2nc(-c4ccccc4Cl)ncc2CC3)c1` was tested, and the IC50 was < 800 nM. For `CC(C)COC(=O)N[C@H]1CCN(C(=O)Nc2nc3c(s2)-c2nc(-c4ccccc4Cl)ncc2CC3)C1`, the IC50 was < 800 nM. `CC(C)CC(=O)N[C@@H]1CCN(C(=O)Nc2nc3c(s2)-c2nc(-c4ccccc4Cl)ncc2CC3)C1` was tested, and the IC50 was < 800 nM. `CN(C)CCCCNC(=O)Nc1nc2c(s1)-c1nc(-c3ccccc3Cl)ncc1CC2` was tested, and the IC50 was < 800 nM. `CCc1noc(CCNC(=O)Nc2nc3c(s2)-c2nc(-c4ccccc4Cl)ncc2CC3)n1` was tested, and the IC50 was < 800 nM. For `O=C(NCc1cccc(N2CCNC2=O)c1)Nc1nc2c(s1)-c1nc(-c3ccccc3Cl)ncc1CC2`, the IC50 was < 800 nM. For `CC(C)(C)c1ncc2c(n1)-c1sc(NC(N)=O)nc1CC2`, the IC50 was < 800 nM. For `O=C(NCCn1ccnc1)Nc1nc2c(s1)-c1nc(-c3ccccc3Cl)ncc1CC2`, the IC50 was < 800 nM. `O=C(NCCc1nc(C2CC2)no1)Nc1nc2c(s1)-c1nc(-c3ccccc3Br)ncc1CC2` was tested, and the IC50 was < 800 nM. In the case of `CC(C)NC(=O)c1cccc(CNC(=O)Nc2nc3c(s2)-c2nc(-c4ccccc4Cl)ncc2CC3)c1`, the IC50 is reported as < 800 nM. With `CCn1cc(CNC(=O)Nc2nc3c(s2)-c2nc(-c4cccc(F)c4Cl)ncc2CC3)cn1` the IC50 was < 800 nM. For `O=C(NCCN1CCCC1)Nc1nc2c(s1)-c1nc(-c3ccccc3Cl)ncc1CC2`, the IC50 was < 800 nM. In the case of `CN1CCC(CNC(=O)Nc2nc3c(s2)-c2nc(-c4ccccc4Cl)ncc2CC3)CC1`, the IC50 is reported as < 800 nM. For `O=C(NCc1ccccc1N1CCCCC1)Nc1nc2c(s1)-c1nc(-c3ccccc3Cl)ncc1CC2`, the IC50 was < 800 nM. `CNC(=O)Nc1nc2c(s1)-c1nc(-c3ccccc3Cl)ncc1CC2` was tested, and the IC50 was < 800 nM. In the case of `CC(C)(C)OC(=O)N[C@@H]1CCN(C(=O)Nc2nc3c(s2)-c2nc(-c4ccccc4Cl)ncc2CC3)C1`, the IC50 is reported as < 800 nM. `O=C(Nc1nc2c(s1)-c1nc(-c3ccccc3Cl)ncc1CC2)N1CC[C@H](NC(=O)C(F)(F)F)C1` was tested, and the IC50 was < 800 nM. `CCOCCNC(=O)Nc1nc2c(s1)-c1nc(-c3ccccc3Cl)ncc1CC2` was tested, and the IC50 was < 800 nM. With `O=C(Nc1nc2c(s1)-c1nc(-c3ccccc3Cl)ncc1CC2)N1CCC(c2c[nH]c3ccccc23)CC1` the IC50 was < 800 nM. In the case of `Nc1cccc(CNC(=O)Nc2nc3c(s2)-c2nc(-c4ccccc4Cl)ncc2CC3)c1`, the IC50 is reported as < 800 nM. In the case of `O=C(NCc1cccc(NC(=O)C2CC2)c1)Nc1nc2c(s1)-c1nc(-c3ccccc3Cl)ncc1CC2`, the IC50 is reported as < 800 nM. In the case of `CC(C)C(=O)N[C@H]1CCN(C(=O)Nc2nc3c(s2)-c2nc(-c4ccccc4Cl)ncc2CC3)C1`, the IC50 is reported as < 800 nM. For `CN(C)C(=O)Nc1nc2c(s1)-c1nc(-c3ccccc3Cl)ncc1CC2`, the IC50 was < 800 nM. In the case of `COCCN(C)C(=O)Nc1nc2c(s1)-c1nc(-c3ccccc3Cl)ncc1CC2`, the IC50 is reported as < 800 nM. For `CC(C)c1noc(CCNC(=O)Nc2nc3c(s2)-c2nc(-c4ccccc4Br)ncc2CC3)n1`, the IC50 was < 800 nM. In the case of `CC(C)c1cccc(CNC(=O)Nc2nc3c(s2)-c2nc(-c4ccccc4Cl)ncc2CC3)c1`, the IC50 is reported as < 800 nM. `Cn1ccc(CNC(=O)Nc2nc3c(s2)-c2nc(-c4ccccc4Cl)ncc2CC3)n1` was tested, and the IC50 was < 800 nM. With `O=C(Nc1ccccc1)Nc1nc2c(s1)-c1nc(-c3ccccc3Cl)ncc1CC2` the IC50 was < 800 nM. In the case of `CC(=O)N(C)c1cccc(CNC(=O)Nc2nc3c(s2)-c2nc(-c4ccccc4Cl)ncc2CC3)c1`, the IC50 is reported as < 800 nM. For `O=C(Nc1nc2c(s1)-c1nc(-c3ccccc3Cl)ncc1CC2)N1CCC(NC(=O)C(F)(F)F)C1` (stereo not given), the IC50 was < 800 nM. `COc1ccccc1C1CCN(C(=O)Nc2nc3c(s2)-c2nc(-c4ccccc4Cl)ncc2CC3)C1` (stereo not given) was tested, and the IC50 was < 800 nM. With `CC(C)N(C)C(=O)Nc1cccc(CNC(=O)Nc2nc3c(s2)-c2nc(-c4ccccc4Cl)ncc2CC3)c1` the IC50 was < 800 nM. With `O=C(Nc1nc2c(s1)-c1nc(-c3ccccc3Cl)ncc1CC2)NC1CCC(N2CCNC2=O)CC1` (stereo not given) the IC50 was < 800 nM. For `CN(C)C(=O)Nc1cccc(CNC(=O)Nc2nc3c(s2)-c2nc(-c4ccccc4Cl)ncc2CC3)c1`, the IC50 was < 800 nM. In the case of `CC(C)(C)OC(=O)CCNC(=O)Nc1nc2c(s1)-c1nc(-c3ccccc3Cl)ncc1CC2`, the IC50 is reported as < 800 nM. `CC(C)(C)OC(=O)N1CCC[C@H]1CNC(=O)Nc1nc2c(s1)-c1nc(-c3ccccc3Cl)ncc1CC2` was tested, and the IC50 was < 800 nM. With `CC(C)(C)OC(=O)CCNC(=O)Nc1nc2c(s1)-c1nc(-c3ccccc3Br)ncc1CC2` the IC50 was < 800 nM. In the case of `CC(C)(C)OC(=O)N1CCC(CNC(=O)Nc2nc3c(s2)-c2nc(-c4ccccc4Cl)ncc2CC3)CC1`, the IC50 is reported as < 800 nM. In the case of `COc1cccc(CNC(=O)Nc2nc3c(s2)-c2nc(-c4ccccc4Cl)ncc2CC3)c1`, the IC50 is reported as < 800 nM. In the case of `O=C(NC[C@@H]1CCCN1)Nc1nc2c(s1)-c1nc(-c3ccccc3Cl)ncc1CC2`, the IC50 is reported as < 800 nM. `CC(C)(C)NC(=O)CCNC(=O)Nc1nc2c(s1)-c1nc(-c3ccccc3Cl)ncc1CC2` was tested, and the IC50 was < 800 nM. `Cn1cc(CNC(=O)Nc2nc3c(s2)-c2nc(-c4ccccc4C(F)(F)F)ncc2CC3)cn1` was tested, and the IC50 was < 800 nM. For `CC(C)C(=O)N[C@@H]1CCN(C(=O)Nc2nc3c(s2)-c2nc(-c4ccccc4Cl)ncc2CC3)C1`, the IC50 was < 800 nM. With `O=C(NCc1cc(C2CC2)n[nH]1)Nc1nc2c(s1)-c1nc(-c3ccccc3C(F)(F)F)ncc1CC2` the IC50 was < 800 nM. In the case of `Cn1cc(CCNC(=O)Nc2nc3c(s2)-c2nc(-c4ccccc4Cl)ncc2CC3)cn1`, the IC50 is reported as < 800 nM. In the case of `O=C1CC[C@H](NC(=O)Nc2nc3c(s2)-c2nc(-c4ccccc4Cl)ncc2CC3)CN1`, the IC50 is reported as < 800 nM. In the case of `CC(C)OC(=O)N[C@@H]1CCN(C(=O)Nc2nc3c(s2)-c2nc(-c4ccccc4Cl)ncc2CC3)C1`, the IC50 is reported as < 800 nM. `O=C(Nc1nc2c(s1)-c1nc(-c3ccccc3Cl)ncc1CC2)N1CCC(N2CCNC2=O)CC1` was tested, and the IC50 was < 800 nM. With `CC(C)(C)OC(=O)CCNC(=O)Nc1nc2c(s1)-c1nc(C(C)(C)C)ncc1CC2` the IC50 was < 800 nM. With `CN(C)C(=O)N[C@@H]1CCN(C(=O)Nc2nc3c(s2)-c2nc(-c4ccccc4Cl)ncc2CC3)C1` the IC50 was < 800 nM. In the case of `CC(C)N(C)C(=O)c1cccc(CNC(=O)Nc2nc3c(s2)-c2nc(-c4ccccc4Cl)ncc2CC3)c1`, the IC50 is reported as < 800 nM. In the case of `CCc1nnc(CCNC(=O)Nc2nc3c(s2)-c2nc(-c4ccccc4Cl)ncc2CC3)o1`, the IC50 is reported as < 800 nM. With `CC(C)CNC(=O)N[C@H]1CCN(C(=O)Nc2nc3c(s2)-c2nc(-c4ccccc4Cl)ncc2CC3)C1` the IC50 was < 800 nM. With `O=C(Nc1nc2c(s1)-c1nc(-c3ccccc3Cl)ncc1CC2)N1CCOCC1` the IC50 was < 800 nM. With `CC(C)NC(=O)CCNC(=O)Nc1nc2c(s1)-c1nc(-c3ccccc3Cl)ncc1CC2` the IC50 was < 800 nM. For `CN(C)CC(=O)N[C@H]1CCN(C(=O)Nc2nc3c(s2)-c2nc(-c4ccccc4Cl)ncc2CC3)C1`, the IC50 was < 800 nM. `CCc1cnc(CCNC(=O)Nc2nc3c(s2)-c2nc(-c4ccccc4F)ncc2CC3)o1` was tested, and the IC50 was < 800 nM. For `O=C(Nc1nc2c(s1)-c1nc(-c3ccccc3Cl)ncc1CC2)N1CCC(N2Cc3ccccc3NC2=O)C1` (stereo not given), the IC50 was < 800 nM. `CC(C)(C)CC(=O)N[C@@H]1CCN(C(=O)Nc2nc3c(s2)-c2nc(-c4ccccc4Cl)ncc2CC3)C1` was tested, and the IC50 was < 800 nM. In the case of `CCn1cc(CNC(=O)Nc2nc3c(s2)-c2nc(-c4ccccc4Cl)ncc2CC3)cn1`, the IC50 is reported as < 800 nM. For `O=C(O)CC1(CNC(=O)Nc2nc3c(s2)-c2nc(-c4ccccc4Cl)ncc2CC3)CCCCC1`, the IC50 was < 800 nM. `CNC(=O)Nc1nc2c(s1)-c1nc(-c3ccccc3C(F)(F)F)ncc1CC2` was tested, and the IC50 was < 800 nM. For `Cn1ccnc1CNC(=O)Nc1nc2c(s1)-c1nc(-c3ccccc3Cl)ncc1CC2`, the IC50 was < 800 nM. For `CC(C)(C)OCCNC(=O)Nc1nc2c(s1)-c1nc(-c3ccccc3Cl)ncc1CC2`, the IC50 was < 800 nM. In the case of `O=C(NCc1cccc(C(F)(F)F)c1)Nc1nc2c(s1)-c1nc(-c3ccccc3Cl)ncc1CC2`, the IC50 is reported as < 800 nM. For `CCc1cnc(CCNC(=O)Nc2nc3c(s2)-c2nc(C(C)(C)C)ncc2CC3)o1`, the IC50 was < 800 nM. For `CN(C)CCN(C)C(=O)Nc1nc2c(s1)-c1nc(-c3ccccc3Cl)ncc1CC2`, the IC50 was < 800 nM. For `O=C(NCc1cccc(NC(=O)N2CCOCC2)c1)Nc1nc2c(s1)-c1nc(-c3ccccc3Cl)ncc1CC2`, the IC50 was < 800 nM. `CC(C)CCNC(=O)CCNC(=O)Nc1nc2c(s1)-c1nc(-c3ccccc3Cl)ncc1CC2` was tested, and the IC50 was < 800 nM. In the case of `O=C(Nc1nc2c(s1)-c1nc(-c3ccccc3Cl)ncc1CC2)N1CCC(n2cnc3ccccc32)CC1`, the IC50 is reported as < 800 nM. `CN(C)C(=O)CCNC(=O)Nc1nc2c(s1)-c1nc(-c3ccccc3Cl)ncc1CC2` was tested, and the IC50 was < 800 nM. For `CC(C)(C)OC(=O)N1CCCC(CNC(=O)Nc2nc3c(s2)-c2nc(-c4ccccc4Cl)ncc2CC3)C1` (stereo not given), the IC50 was < 800 nM. With `CNC(=O)Nc1nc2c(s1)-c1nc(-c3ccccc3Br)ncc1CC2` the IC50 was < 800 nM. For `CC(C)OC(=O)N[C@H]1CCN(C(=O)Nc2nc3c(s2)-c2nc(-c4ccccc4Cl)ncc2CC3)C1`, the IC50 was < 800 nM. With `CCN1CCC[C@@H]1CNC(=O)Nc1nc2c(s1)-c1nc(-c3ccccc3Cl)ncc1CC2` the IC50 was < 800 nM. For `O=C(NCc1cccc(NC(=O)N2CCCC2)c1)Nc1nc2c(s1)-c1nc(-c3ccccc3Cl)ncc1CC2`, the IC50 was < 800 nM. In the case of `CC(C)CNC(=O)CCNC(=O)Nc1nc2c(s1)-c1nc(-c3ccccc3Cl)ncc1CC2`, the IC50 is reported as < 800 nM. In the case of `CC(C)(C)OC(=O)NC1CCN(C(=O)Nc2nc3c(s2)-c2nc(-c4ccccc4Cl)ncc2CC3)C1` (stereo not given), the IC50 is reported as < 800 nM. For `CN1CCN(C(=O)Nc2nc3c(s2)-c2nc(-c4ccccc4Cl)ncc2CC3)CC1`, the IC50 was < 800 nM. In the case of `CN(Cc1cccc(CNC(=O)Nc2nc3c(s2)-c2nc(-c4ccccc4Cl)ncc2CC3)c1)C(=O)OC(C)(C)C`, the IC50 is reported as < 800 nM. `O=C(NCc1cc(C2CC2)n[nH]1)Nc1nc2c(s1)-c1nc(-c3cccc(F)c3Cl)ncc1CC2` was tested, and the IC50 was < 800 nM. For `O=C(Nc1nc2c(s1)-c1nc(-c3ccccc3Cl)ncc1CC2)N1CC[C@@H](NC(=O)N2CCCC2)C1`, the IC50 was < 800 nM. In the case of `O=C(CC1CC1)N[C@H]1CCN(C(=O)Nc2nc3c(s2)-c2nc(-c4ccccc4Cl)ncc2CC3)C1`, the IC50 is reported as < 800 nM. With `O=C(N[C@H]1CCN(C(=O)Nc2nc3c(s2)-c2nc(-c4ccccc4Cl)ncc2CC3)C1)C1CC1` the IC50 was < 800 nM. For `COCCN(C)C(=O)N[C@H]1CCN(C(=O)Nc2nc3c(s2)-c2nc(-c4ccccc4Cl)ncc2CC3)C1`, the IC50 was < 800 nM. With `CC(C)CNC(=O)Nc1nc2c(s1)-c1nc(-c3ccccc3Cl)ncc1CC2` the IC50 was < 800 nM. `CN1CCN(C(=O)N[C@H]2CCN(C(=O)Nc3nc4c(s3)-c3nc(-c5ccccc5Cl)ncc3CC4)C2)CC1` was tested, and the IC50 was < 800 nM. With `CCCn1ccc(CNC(=O)Nc2nc3c(s2)-c2nc(-c4ccccc4Cl)ncc2CC3)n1` the IC50 was < 800 nM. `O=C(Nc1nc2c(s1)-c1nc(-c3ccccc3Cl)ncc1CC2)N1CCCC1` was tested, and the IC50 was < 800 nM.
